Laboratory results taken from US20210260018A1, “COMPOSITION FOR TREATING FIBROTIC DISEASES, […] THI[…] AS ACTIVE INGREDIENT” (Cellion Biomed Inc., priority 2018, published 2021).

Legend:
[1] = tested on: TAA-induced liver disease mouse models; assay: TAA-induced liver disease mouse model; assay type: in vivo; conditions: TAA mice; for ALT levels / AST blood levels: blood, mean±S.E.M
Protocol: (§1) To confirm the effects of the compounds of Formula A1 to A5 (CBM-N1˜N5) according to the present invention on liver inflammation and fibrosis, subsequent experiments were performed on […] wild-type mouse (purchased from Orient Bio). First, to induce liver disease in mice, thioacetamide (TAA) were administered to the mice (Experiment A), or the mice were raised on a western diet inducing fatty liver disease (Experiment B). The mice were divided into a normal control, a disease-induced group, and a drug-administered group, and among these three groups, […] were used in each group for Experiment A, and 10 mice were used in each group for Experiment B. A drug treatment method for the mice in each group is as follows:
(§2) (1) Normal control: The normal control in Experiment A was intraperitoneally injected three times a week with the same amount of TAA solvent used when TAA was injected into a disease-induced group, and the normal control in Experiment B was raised on a normal diet. In both of the Experiments A and B, a CM/1-N1 solvent was injected using an oral tube at the same amount as that of CBM-N1 injection five times a week. The TAA solvent was distilled water, the CBM-N1 solvent and a derivative thereof were a 1:1 mixture of DMSO and distilled water. In the accompanying drawings, C or Control refers to a normal control.
(2) Disease-induced group: The disease-induced group in the Experiment A was intraperitoneally injected with TAA at 100 mg/kg three times a week, the disease-induced group in the Experiment B was raised on a western diet (WD, 45% saturated fat, […], and water containing fructose and glucose). All CBM-N1 solvents in the Experiments A and B were administered using an oral tube at the same amount as that of CBM-N1 administration five times a week. In the accompanying drawings, TAA refers to a group in which a disease is induced by TAA, and \VD refers to a group in which a disease is induced by a western diet.
(3) Drug-administered group: In the Experiment A, the compounds of Formulas 1 to 5 (50 mg/kg/day, 5 times/week e administered with TAA (100 mg/kg, 3 times/week), and in the Experiment B, CBM-N1 to N5 (50 mg/kg/day, 5 times/week) were administered with a western diet. The mice treated by the above-described method for 16 weeks were instantly killed by excessively administering an anesthetic, and then the livers and blood were extracted. In the accompanying drawings, TAA+CBM-Ni, TAA+CBM-N2, TAA+CBM-N3, TAA+CBM-N4 and TAA+CBM-N5 refer to disease-induced groups to which the compounds of Formulas A1 to A5 were administered, respectively.
To histologically confirm the therapeutic effect of the compound of Formula A1 (CBM-N1) or the compound of Formula A9 (CBM-N9) in each mouse model, a paraffin tissue sample was prepared. Liver and lung tissues were fixed with a paraformaldehyde solution, and sliced to a thickness of 1 to 2 mm. The sectioned tissues were embedded in paraffin, sliced to a thickness of 4 μm to remove paraffin with xylene, and the xylene was removed with ethanol, followed by washing with tap water. The resulting tissues were subjected to hematoxylin and eosin staining (H&E staining) or immunohistochemistry.
(1) H&E staining: Nuclei were first stained (blue) with a Harris hematoxylin staining solution for 5 minutes, and counter-stained (pink) with an eosin solution.
(2) Immunohistochemistry for inflammation markers: Inflammation markers (CD82 and CD45) were stained with specific antibodies, and lymphoid cells were stained brown.
(3) Immunohistochemistry for fibrosis markers: Collagen was stained by Masson's trichrome staining, or reticulin fibers were stained by reticulin staining.
Aspartic acid aminotransferase (AST, GOT) and alanine aminotransferase (ALT, GPT), total bilirubin and albumin concentrations were measured using blood collected from liver disease mouse models. […]

[2] = tested on: fibrosis markers (α-SMA, collagen 1α, collagen 3α) in fibroblasts; assay: Expression of fibrosis markers in fibroblasts exposed to TGFβ (western blotting); assay type: cell-based; conditions: fibroblasts exposed to TGFβ (5 ng/ml) + compound for 24 hours
Protocol: (§3) Fibroblasts (CRL-2795; American Type Culture Collection, VA) were cultured in a Dulbecco's Modified Eagle Medium (Hyclone, Logan, Utah), human uterine microvascular endothelial cells (PromoCell GmbH, Heidelberg, Germany) were cultured in an MV2 medium (PromoCell GmbH), and human hepatic stellate cells (Innoprot, Bizkia, Spain) were cultured in a P60126 medium (Innoprot).
(§4) All cells were maintained under a 5% humidified carbon dioxide condition at 37° C. The cultured cells were exposed to each of PDGF, TGFβ, and the compounds of Formulas A1 to A9 (CBM-N1 N9) for 24 hours, followed by performing experiments.
(§5) Cells were lysed with a protein extraction buffer solution, a protein concentration in a supernatant was determined by Bradford analysis, and […] of the protein was loaded on an SDS-PAGE gel and then transferred to a nitrocellulose membrane. The nitrocellulose membrane was blocked with 5% BSA-containing TEST (10 mM Tris-HCl, 150 mM NaCl, and 0.1% (v/v) Tween-20, pH 7.6) at room temperature for 1 hour. Blots were incubated overnight with primary antibodies, and then incubated with horseradish peroxidase-conjugated secondary antibodies for 1 hour. Bands were visualized by chemiluminescence. Data collection and processing were performed using an image analyzer (LAS-3000) and IMAGE GAUSE software (Fuji film, Japan).

KCa2.3 channel [3] = assay: KCa2.3 channel protein expression in fibroblasts (western blotting); assay type: cell-based
Protocol: as §3, §4, §5

KCa2.3 channel [4] = assay: KCa2.3 channel protein expression in hepatic stellate cells (western blotting); assay type: cell-based, human; conditions: exposure for 24 hours
Protocol: as §3, §4, §5

KCa2.3 channel [5] = assay: KCa2.3 channel expression in vascular endothelial cells (real-time PCR, western blotting); assay type: cell-based, human
Protocol: as §3, §4
The mRNA expression levels of inflammation or fibrosis factors in extracted liver tissue were measured by real-time PCR. RNA of the liver tissue was isolated with a TRIzol reagent (Molecular Research Center, Cincinnati, Ohio), and single-stranded cDNA was synthesized using BcaBEST polymerase (TakaraShuzo), followed by a polymerase chain reaction.
Cells were lysed with a protein extraction buffer solution, a protein concentration in a supernatant was determined by Bradford analysis, and […] of the protein was loaded on an SDS-PAGE gel and then transferred to a nitrocellulose membrane. The nitrocellulose membrane was blocked with 5% BSA-containing TEST (10 mM Tris-HCl, 150 mM NaCl, and 0.1% (v/v) Tween-20, pH 7.6) at room temperature for 1 hour. […]

[6] = tested on: western diet-induced liver disease mouse models; assay: Western diet-induced liver disease mouse model; assay type: in vivo; conditions: western diet mice
Protocol: as §1, §2
(2) Disease-induced group: The disease-induced group in the Experiment A was intraperitoneally injected with TAA at 100 mg/kg three times a week, the disease-induced group in the Experiment B was raised on a western diet (WD, 45% saturated fat, […], and water containing fructose and glucose). […]
Aspartic acid aminotransferase (AST, GOT) and alanine aminotransferase (ALT, GPT), total bilirubin and albumin concentrations were measured using blood collected from liver disease mouse models.
The mRNA expression levels of inflammation or fibrosis factors in extracted liver tissue were measured by real-time PCR. […]

fibroblasts = assay: MTT cell proliferation in fibroblasts exposed to TGFβ or PDGF; assay type: cell-based
Protocol: as §3, §4
Cells were seeded in 96-well plates at 2×10^4 cells/well, and then exposed to TGFB, which promotes cell proliferation, for 24 hours. In addition, 0.1 mg of MTT was added to each well, followed by exposure for 4 hours at 37° C. Afterward, the culture medium was removed, the cells were lysed with dimethyl sulfoxide, and then absorbance was measured at 590 nm using the following devices.

KCa3.1 channel = KCa3.1 channel expression in vascular endothelial cells; assay type: cell-based, human; conditions: PDGF treatment, 24 hours
Sequence of KCa3.1 channel (O15554 whole entry): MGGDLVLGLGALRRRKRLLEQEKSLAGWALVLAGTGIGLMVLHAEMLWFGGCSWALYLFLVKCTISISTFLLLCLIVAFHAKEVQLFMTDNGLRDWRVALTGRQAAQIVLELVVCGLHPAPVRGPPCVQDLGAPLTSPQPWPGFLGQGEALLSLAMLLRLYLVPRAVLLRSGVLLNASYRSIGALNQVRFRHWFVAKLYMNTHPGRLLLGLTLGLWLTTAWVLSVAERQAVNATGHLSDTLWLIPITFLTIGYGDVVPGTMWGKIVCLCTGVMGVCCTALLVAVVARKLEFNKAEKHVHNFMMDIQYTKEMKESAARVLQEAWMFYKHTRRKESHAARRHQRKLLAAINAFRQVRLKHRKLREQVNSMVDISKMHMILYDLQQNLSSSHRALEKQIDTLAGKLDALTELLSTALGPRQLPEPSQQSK
Protocol: as §3, §4, §5

[7] = liver tissue, versus disease-induced group
[8] = blood, 50 mg/kg/day, 16 weeks, mean±S.E.M

Compound	ALT levels ([1]; 50 mg/kg/day, 16 weeks) [units/L]	AST blood levels ([1]; 50 mg/kg/day, 16 weeks) [units/L]	mRNA level of inflammation factors (inflammatory cytokines TNFα, CCL2, IL12, TGF, IL1α, IL6, MIP-2) [1, 7]	expression of the KCa2.3 channel protein (KCa2.3 channel [4])	other results
NC(=O)C[S+]([O-])C(c1ccccc1)c1ccccc1 (stereo not shown) [CBM-N1, 2-(benzhydrylsulfinyl)acetamide]	70.3±14.7	62.7±11.6	decreased	reduced in hepatic stellate cells in a concentration-dependent manner	number of inflammation cells (H&E staining of liver tissue) ([1]; 50 mg/kg/day, 16 weeks, versus disease-induced group): significantly decreased; mRNA expression levels of fibrosis markers (Col1α, Col3α, Col4α, α-SMA, TGFR2) ([1]; liver tissue): decreased; expression levels of the fibrosis markers (α-SMA, collagen 1α, collagen 3α proteins) [2]: reduced; expression level of the KCa2.3 channel protein (KCa2.3 channel [3]): reduced; expression of the KCa2.3 channel protein (KCa2.3 channel [5]; vascular endothelial cells with KCa2.3 expression increased with PDGF, treated for 24 hours): significantly decreased; ALT levels [6, 8]: 87.2±24.7 units/L; AST blood levels [6, 8]: 71.4±19.8 units/L; mRNA expression levels of inflammatory cytokines CCL2, IL6 and IL1α [6, 7]: decreased; cell proliferation (fibroblasts; fibroblasts exposed to TGFβ (5 ng/ml) + compound for 24 hours): inhibited
O=C(CSC(c1ccccc1)c1ccccc1)NCC1CCCO1 (stereo not shown) [CBM-N2, 2-(benzhydrylthio)-N-[(tetrahydrofuran-2-yl)methyl]acetamide]	113.4±7.9	83.6±14.8	decreased	significantly reduced	
O=C(CSC(c1ccccc1)c1ccccc1)Nc1ccccc1 [CBM-N3, 2-(benzhydrylthio)-N-phenylacetamide]	103.0±6.9	73.4±7.4	decreased		
CNC(=O)C[S+]([O-])C(c1ccccc1)c1ccccc1 (stereo not shown) [CBM-N4, 2-(benzhydrylsulfinyl)-N-methylacetamide]	114.1±8.8	66.6±9.4	decreased		
O=C(C[S+]([O-])C(c1ccccc1)c1ccccc1)NCC1CCCO1 (stereo not shown) [CBM-N5, 2-(benzhydrylsulfinyl)-N-[(tetrahydrofuran-2-yl)methyl]acetamide]	106.4±12.8	67.7±10.2	decreased	significantly reduced	
NC(=O)C[S+]([O-])C(c1cccc(F)c1)c1cccc(F)c1 (stereo not shown) [CBM-N8, 2-[bis(3-fluorophenyl)methanesulfinyl]acetamide]				significantly reduced	TGFβ or PDGF-induced cell proliferation (fibroblasts; fibroblasts, TGFβ (5 ng/ml) or PDGF (20 ng/ml), 24 hours): significantly reduced
PDGF					expression of the KCa3.1 channel (KCa3.1 channel): did not increase; expression of the mRNA and protein of the KCa2.3 channel (KCa2.3 channel [5]; vascular endothelial cells exposed to PDGF (20 ng/ml) or TGF (5 ng/ml) for 24 hours): increased
